Source: US20210087156A1, “PHARMACEUTICALLY ACCEPTABLE SALTS OF BENZODICYCLOALKANE DERIVATIVE, P[…] THEREOF, AND APPLICATION THEREOF” (priority 2018, published 2021)
≈ marks a conversion by molar mass, not a printed value.

Key:
[1] = biological target: δ opioid receptors (Homo sapiens, UniProt P41143); conditions: background statement; cited from earlier work
[2] = background statement, cited from earlier work
[3] = In vivo test of rats: pharmacokinetics after oral administration; conditions: male, SD, rat, 10 mg/kg, oral administration of dezocine in rats, dose of dezocine 10mpk
Method: LC-MS/MS method was applied for the determination of the drug concentration in plasma at different times after the example compounds were orally administered to rats in order to study the pharmacokinetic behavior of the compounds of the invention in vivo in rats and evaluate their pharmacokinetic characteristics.
Test Animals: healthy Adult male SD rats (weight 200-300 g, 3, fasted), provided by SLAC company;
Administration and Dosage: (16 mg/kg or 24 mg/kg, 10 mL/kg, 5% 1,2-propanediol (1,2-Propanediol, Shanghai Titan Technology Co., Ltd. Lot No.: P1057349)) was administered via oral gavage to SD rats;
Blood collection: firstly, the animals which were selected to meet the test requirements prior to administration were weighed. The rats were bound before the blood collection, blood from each administered rat was taken at predetermined time points, (blood was collected at 0.083, 0.25, 0.5, 1, 2, 4, 6, 8 h before and after administration respectively, 9 time points in total), about 150 μl of blood was collected via orbital vein. Blood was transferred to a 1.5 ml tube to which K2EDTA was added previously. The collected blood sample was put on ice, and centrifuged to obtain plasma sample (2000 g, 5 min under 4° C.) within 15 minutes. All the plasma samples were stored at approximately −70° C. until analysis.
LC/MS/MS method was applied to determine the concentrations of the drug. […]

[4] = Solubility test at room temperature; format: physicochemical; conditions: room temperature, shaken 24 h
Method: The solubility of the crystal form A, the crystal form C and the free base in 0.1 M HCL, pH 4.5, or pH 6.8 buffer or water was tested at room temperature. In the test, the standard curves of the crystal form A, the crystal form C and the free base were plotted respectively. Subsequently, a appropriate amount of the crystal form A, the crystal form C and the free base was weighed respectively, to which was added a appropriate amount of solvent. The mixture was shaken at room temperature for 24 h, centrifuged. The supernatant was taken and the solubility was determined. The results are shown in Table 7, (the concentration unit is mg/mi).

[5] = Potency compared with the existing dezocine (statement, no method given)
[6] = biological target: T1, CYP3A4 (Homo sapiens, UniProt P08684); test: Inhibition of CYP enzyme (CYP3A4, midazolam substrate, HLM); format: in vitro ADME
T1 construct: Add 200 μL of 0.2 mg/mL HLM to the assay wells; from tissue; host or cells: liver microsomes (HLM)
T1 sequence (P08684 whole entry): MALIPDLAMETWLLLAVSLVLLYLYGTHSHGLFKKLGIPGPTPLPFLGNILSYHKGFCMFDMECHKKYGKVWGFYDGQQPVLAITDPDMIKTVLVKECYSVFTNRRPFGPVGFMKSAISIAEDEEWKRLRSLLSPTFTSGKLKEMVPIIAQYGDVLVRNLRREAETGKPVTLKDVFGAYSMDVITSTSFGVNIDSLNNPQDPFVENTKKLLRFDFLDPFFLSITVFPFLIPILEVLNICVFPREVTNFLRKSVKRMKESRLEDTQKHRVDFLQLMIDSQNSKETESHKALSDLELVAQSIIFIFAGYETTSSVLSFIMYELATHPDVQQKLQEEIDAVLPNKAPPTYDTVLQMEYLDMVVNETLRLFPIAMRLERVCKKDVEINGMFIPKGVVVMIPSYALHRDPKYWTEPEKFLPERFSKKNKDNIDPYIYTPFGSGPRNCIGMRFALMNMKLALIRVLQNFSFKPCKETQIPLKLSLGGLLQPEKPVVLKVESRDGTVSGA
Method: 1. Preheat 0.1 M potassium phosphate buffer (K-buffer), pH 7.4:
100 mM K-Buffer: mix 9.5 mL Stock A into 40.5 mL Stock B, bring total volume to 500 mL with Milli-Q water, titrate the buffer with KOH or H3PO4 to pH 7.4.
Stock A (1 M monobasic potassium phosphate): 136.5 g of monobasic potassium phosphate in 1 L of Milli-Q water.
Stock B (1 M dibasic potassium phosphate): 174.2 g of dibasic potassium phosphate in 1 L of Milli-Q water.
2. Prepare serial dilution for test compounds and reference inhibitors (400×) in a 96-well plate:
2.1 Transfer 8 μL of 10 mM test compounds to 12 μL of ACN.
2.2 Prepare individual inhibitor spiking solution for reference: 8 μL of DMSO stock to 12 μL of ACN.
2.3 Prepare 1:3 serial dilutions in DMSO:ACN mixture (v/v: 40:60).
3. Prepare 4×NADPH cofactor (66.7 mg NADPH in 10 mL 0.1 M K-buffer, pH7.4).
4. Prepare 4×substrate (2 mL for each isoform) as indicated in the table below (add HLM where required on ice).
5. Prepare 0.2 mg/mL HLM solution (10 μL of 20 mg/mL to 990 μL of 0.1 M K-buffer) on ice.
6. Add 200 μL of 0.2 mg/mL HLM to the assay wells and then add 1 μL of test compounds or reference compounds into the designated wells on ice.
7. Add following solutions (in duplicate) in a 96-well assay plate on ice:
7.1 Add 30 μL of 2×test compounds and reference compound in 0.2 mg/mL HLM solution;
7.2 Add 15 μL of 4×substrate solution.
8. […]

[7] = Stability test of free base, crystal form A and crystal form C (content and related substance); format: physicochemical; conditions: 5° C.
Method: The crystal form and purity change were measured respectively on 3rd and 7th day. The results are shown in Table 6, FIGS. 22, 23, 24 and 25. […]

[8] = biological target: T2, hERG potassium ion channel (Homo sapiens, UniProt Q12809); test: Inhibition of hERG potassium ion channel, manual whole-cell patch clamp in CHO hERG cells; format: cell-based
T2 construct: host or cells: CHO cells stably expressing hERG
T2 sequence (Q12809 whole entry): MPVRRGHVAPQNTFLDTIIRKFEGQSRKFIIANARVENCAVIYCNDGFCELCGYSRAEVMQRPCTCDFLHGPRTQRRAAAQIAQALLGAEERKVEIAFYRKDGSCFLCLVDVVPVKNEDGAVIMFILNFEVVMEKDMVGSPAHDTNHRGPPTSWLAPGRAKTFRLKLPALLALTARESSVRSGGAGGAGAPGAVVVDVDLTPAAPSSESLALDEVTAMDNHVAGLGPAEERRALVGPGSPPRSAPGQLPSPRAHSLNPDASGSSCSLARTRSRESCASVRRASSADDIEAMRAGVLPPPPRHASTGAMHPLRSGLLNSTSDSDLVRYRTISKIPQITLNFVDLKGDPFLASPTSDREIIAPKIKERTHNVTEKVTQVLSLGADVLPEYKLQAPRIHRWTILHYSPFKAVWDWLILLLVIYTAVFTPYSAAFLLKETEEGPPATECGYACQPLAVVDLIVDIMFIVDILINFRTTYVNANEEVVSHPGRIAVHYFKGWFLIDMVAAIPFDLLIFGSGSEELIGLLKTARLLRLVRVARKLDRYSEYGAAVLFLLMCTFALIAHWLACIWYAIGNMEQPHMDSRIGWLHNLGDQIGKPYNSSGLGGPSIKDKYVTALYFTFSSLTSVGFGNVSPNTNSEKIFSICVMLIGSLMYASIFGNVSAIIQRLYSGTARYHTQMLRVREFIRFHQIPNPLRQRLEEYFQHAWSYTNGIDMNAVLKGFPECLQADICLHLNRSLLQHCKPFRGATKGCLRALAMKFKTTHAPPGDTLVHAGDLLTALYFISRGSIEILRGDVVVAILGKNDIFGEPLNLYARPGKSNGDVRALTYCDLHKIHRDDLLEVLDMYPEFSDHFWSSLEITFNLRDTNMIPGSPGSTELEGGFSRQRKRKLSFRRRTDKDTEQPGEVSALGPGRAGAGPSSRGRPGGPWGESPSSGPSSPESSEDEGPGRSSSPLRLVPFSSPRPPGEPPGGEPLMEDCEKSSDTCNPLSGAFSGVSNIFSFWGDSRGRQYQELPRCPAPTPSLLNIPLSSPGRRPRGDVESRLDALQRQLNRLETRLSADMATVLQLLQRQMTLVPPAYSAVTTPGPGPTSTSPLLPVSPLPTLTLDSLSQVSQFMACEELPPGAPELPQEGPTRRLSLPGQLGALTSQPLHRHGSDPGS
Method: 2.1.1 Cells used in this experiment are CHO cell lines (supplied by Sophion Bioscience, Denmark) which are hERG cDNA transfectant and stably express hERG channels, cell progeny is P15. Cells are cultured in medium containing the following ingredients Invitrogen): Ham's F12 medium, 10% (v/v) inactivated fetal bovine serum, […] hygromycin B, […] Geneticin.
2.1.2 CHO hERG cells were grown in Petri dishes containing the above medium and cultured in an incubator containing 5% CO2 at 37° C. […]
In this experiment, whole-cell current recording was performed using a manual patch clamp system (HEKA EPC-10 signal amplification and digital conversion system, purchased from HEKA Electronic, Germany) The round glass slide of which surface CHO hERG cells were grown on was placed in an electrophysiological recording slot under an inverted microscope. […] The hERG potassium current recorded in the above steps should be superfused for test drug after the steady perfusion state of the extracellular fluid in the recording slot is stabilized until the inhibition of the hERG current by the drug reached a steady state. […]
The test data were analyzed by the data analysis software provided by HEKA Patchmaster (V2x73.2), Microsoft Excel and Graphpad Prism 5.0.

Chain of δ opioid receptors (P41143 whole entry): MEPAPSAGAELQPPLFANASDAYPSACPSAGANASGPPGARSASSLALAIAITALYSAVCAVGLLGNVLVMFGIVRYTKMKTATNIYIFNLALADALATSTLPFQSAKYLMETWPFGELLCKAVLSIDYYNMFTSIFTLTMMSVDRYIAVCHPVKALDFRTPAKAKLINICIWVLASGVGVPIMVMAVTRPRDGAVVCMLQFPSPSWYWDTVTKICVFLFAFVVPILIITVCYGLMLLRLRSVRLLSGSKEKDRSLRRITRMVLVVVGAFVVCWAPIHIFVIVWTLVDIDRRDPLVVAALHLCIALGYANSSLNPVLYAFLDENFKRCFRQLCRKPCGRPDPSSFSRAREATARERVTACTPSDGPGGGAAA

## C[C@@]12CCCCC[C@@H](Cc3ccc(O)cc31)[C@@H]2N [dezocine]
[1]
  activity on δ opioid receptors (in words): very weak
[2]
  oral bioavailability: ≤ 5%
[2]; injection
  time after which the blood drug concentration falls below the effective level: 2 to 3 h
[3]
  AUC: 58.6 ng·h/mL

## C[C@@]12CCCCC[C@@H](Cc3ccc(OC(=O)NC4COC4)cc31)[C@@H]2N [free base of Compound X]
[4]; 0.1M HCL
  Final pH: 1.30
  phenomenon: Flocculent
  solubility: 18860 µg/mL (≈ 54.8 mM)
[4]; H2O
  Final pH: 8.61
  phenomenon: turbid
  solubility: 50 µg/mL (≈ 0.145 mM)
[4]; pH 4.5 buffer
  Final pH: 6.41
  phenomenon: turbid
  solubility: 3750 µg/mL (≈ 10.9 mM)
[4]; pH 6.8 buffer
  Final pH: 6.78
  phenomenon: turbid
  solubility: 2030 µg/mL (≈ 5.89 mM)
[5]
  potency compared with the existing dezocine: increased more than three-fold
[6]; 1 μM
  inhibitory activity on CYP3A4 (in words): little inhibitory activity
[6]; human, human liver microsomes, pH 7.4, probe midazolam, substrate midazolam (M), 0.1 mg/mL HLM, read-out: CYP3A4(M) inhibition rate/1 μM
  inhibition at 5 min, 1 μM: 23.8%
[7]; 0 d
  RRT(%) 0.76 (related substance): 1.19%
  RRT(%) 1.29 (related substance): 3.35%
  RRT(%) 1.53 (related substance): 0.18%
  RRT(%) 1.59 (related substance): 0.97%
  RRT(%) 1.75 (related substance): 0.43%
[7]; 0 d (control)
  Area (%): 93.88%
  Total impurity (%): 6.12%
  character: off-white solid
[8]; 10 μM
  inhibitory activity on the hERG potassium ion channel (in words): little inhibitory activity
[8]; human, CHO cells stably expressing hERG channels, CHO hERG cells, patch clamp, ~25° C.
  inhibition at 10 μM: 20.6%
